Measured values from US20050222253A1, “Anti-cancer nitro- and thia-fatty acids” (priority 1999, published 2005).

Assays:
15-LO [1] = target: T1, 15-LO (Glycine max, UniProt P08170); experiment: Effect on 15-LO catalysed oxidation of arachidonic acid; format: biochemical, soybean; details: preliminary experiment, result in words
T1 construct: purchased Sigma Chemical Company
T1 sequence (P08170 1-839): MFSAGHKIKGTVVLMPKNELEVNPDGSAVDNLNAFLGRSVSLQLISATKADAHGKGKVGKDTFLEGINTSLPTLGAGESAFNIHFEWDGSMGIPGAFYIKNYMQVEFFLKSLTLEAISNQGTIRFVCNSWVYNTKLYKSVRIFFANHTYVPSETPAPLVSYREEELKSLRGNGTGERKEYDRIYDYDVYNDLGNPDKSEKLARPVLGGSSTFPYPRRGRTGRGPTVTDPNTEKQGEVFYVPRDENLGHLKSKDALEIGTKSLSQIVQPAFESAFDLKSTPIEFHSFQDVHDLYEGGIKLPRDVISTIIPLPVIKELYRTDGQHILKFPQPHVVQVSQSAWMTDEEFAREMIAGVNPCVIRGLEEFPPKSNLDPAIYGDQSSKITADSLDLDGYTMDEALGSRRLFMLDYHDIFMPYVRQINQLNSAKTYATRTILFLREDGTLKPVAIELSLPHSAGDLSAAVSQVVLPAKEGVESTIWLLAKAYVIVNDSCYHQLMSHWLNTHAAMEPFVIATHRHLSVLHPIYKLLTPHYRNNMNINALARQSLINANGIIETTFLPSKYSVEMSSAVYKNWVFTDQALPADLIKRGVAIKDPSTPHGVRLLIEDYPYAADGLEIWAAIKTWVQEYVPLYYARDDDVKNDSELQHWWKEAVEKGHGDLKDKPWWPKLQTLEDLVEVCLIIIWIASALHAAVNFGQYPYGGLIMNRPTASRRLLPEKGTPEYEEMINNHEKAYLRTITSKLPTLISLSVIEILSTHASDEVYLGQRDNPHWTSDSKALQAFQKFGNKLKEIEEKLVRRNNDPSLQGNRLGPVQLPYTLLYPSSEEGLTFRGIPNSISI

15-LO [2] = target: T1, 15-LO; experiment: as above; format: biochemical, soybean; details: varying concentrations of compound
Protocol: (§1) Based on this consideration, 5-LO, 12-LO and 15-LO catalysed oxidation of the nitro compounds (4a, 4b, 6a, 6b, 8a and 8b) was investigated. Each of the nitro compounds was treated with 15-LO in pH 9.0 buffer (or 5-LO in pH 6.3 buffer and 12-LO in pH 7.4 buffer), and the formation of 15-hydroperoxy derivatives (or 5-hydroperoxy or 12-hydroperoxy derivatives) over time was monitored by LW spectroscopy at 234 nm.
The inhibitor constant (Ki or KI) of compound 8a was also determined.
(§2) 15-LO was obtained from Sigma Chemical Company, and 12-LO from Cayman Chemical Company. Arachidonic acid 1, linolenyl alcohol 57a, gamma linolenyl alcohol 5b, arachidonyl alcohol 57c and docosahexaenyl alcohol 57d were purchased from Nu-Chek Prep. Inc. Elysian, Minn., USA. Other chemicals were commercially available from Aldrich Chemical Company.

5-LO = 5-LO (Solanum tuberosum, UniProt P37831); experiment: Effect on 5-LO catalysed oxidation of arachidonic acid; format: biochemical; details: preliminary experiment; purified enzyme; result in words
Protocol: as §1, with “nm. […]” for “nm.”

12-LO = target: T2, 12-LO (Sus scrofa, UniProt P16469); experiment: Effect on 12-LO catalysed oxidation of arachidonic acid; format: biochemical, porcine; details: preliminary experiment; result in words
T2 construct: purchased Cayman Chemical Company
T2 sequence (P16469 1-663): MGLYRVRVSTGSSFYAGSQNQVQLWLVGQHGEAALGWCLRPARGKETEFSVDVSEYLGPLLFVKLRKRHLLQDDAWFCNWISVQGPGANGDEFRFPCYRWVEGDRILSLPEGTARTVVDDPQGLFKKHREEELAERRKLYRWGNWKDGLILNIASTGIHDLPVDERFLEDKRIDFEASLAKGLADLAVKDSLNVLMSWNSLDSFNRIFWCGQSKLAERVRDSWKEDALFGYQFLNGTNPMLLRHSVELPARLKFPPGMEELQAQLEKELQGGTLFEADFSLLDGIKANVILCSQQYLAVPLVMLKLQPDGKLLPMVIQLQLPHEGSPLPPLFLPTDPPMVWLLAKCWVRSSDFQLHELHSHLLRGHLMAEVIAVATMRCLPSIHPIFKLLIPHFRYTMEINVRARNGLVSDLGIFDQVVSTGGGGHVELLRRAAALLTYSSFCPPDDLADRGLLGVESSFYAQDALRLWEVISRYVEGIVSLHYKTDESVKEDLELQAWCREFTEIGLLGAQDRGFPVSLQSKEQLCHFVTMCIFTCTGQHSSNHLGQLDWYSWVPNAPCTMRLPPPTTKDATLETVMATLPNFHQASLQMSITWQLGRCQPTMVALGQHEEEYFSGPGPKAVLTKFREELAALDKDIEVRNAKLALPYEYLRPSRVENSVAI
Protocol: as §1
A number of Lx compounds were tested for anti 5-LOX and 12-LOX activities in the human breast cancer cell line, MCF-7. […] The ability of 5-LOX and 12-LOX to produce oxidated products of 20:4n-6 with a different absorption wavelength in the presence of nitroso-PUFA was examined and is shown in the progress curves in FIG. 6. […] Within cells, activation of 5-LOX is facilitated by 5-LOX activating protein (FLAP). Thus, in intact cells, Lx7 and Lx9 may be able to activate 5-LOX at lower concentrations than those required in the purified enzyme system shown in FIG. 6. […] By being able to activate 5-LOX and suppress 12-LOX, these compounds have the desired characteristics of anti-breast cancer agents as discussed previously.
as §2

5-LO, sequence (P37831 whole entry): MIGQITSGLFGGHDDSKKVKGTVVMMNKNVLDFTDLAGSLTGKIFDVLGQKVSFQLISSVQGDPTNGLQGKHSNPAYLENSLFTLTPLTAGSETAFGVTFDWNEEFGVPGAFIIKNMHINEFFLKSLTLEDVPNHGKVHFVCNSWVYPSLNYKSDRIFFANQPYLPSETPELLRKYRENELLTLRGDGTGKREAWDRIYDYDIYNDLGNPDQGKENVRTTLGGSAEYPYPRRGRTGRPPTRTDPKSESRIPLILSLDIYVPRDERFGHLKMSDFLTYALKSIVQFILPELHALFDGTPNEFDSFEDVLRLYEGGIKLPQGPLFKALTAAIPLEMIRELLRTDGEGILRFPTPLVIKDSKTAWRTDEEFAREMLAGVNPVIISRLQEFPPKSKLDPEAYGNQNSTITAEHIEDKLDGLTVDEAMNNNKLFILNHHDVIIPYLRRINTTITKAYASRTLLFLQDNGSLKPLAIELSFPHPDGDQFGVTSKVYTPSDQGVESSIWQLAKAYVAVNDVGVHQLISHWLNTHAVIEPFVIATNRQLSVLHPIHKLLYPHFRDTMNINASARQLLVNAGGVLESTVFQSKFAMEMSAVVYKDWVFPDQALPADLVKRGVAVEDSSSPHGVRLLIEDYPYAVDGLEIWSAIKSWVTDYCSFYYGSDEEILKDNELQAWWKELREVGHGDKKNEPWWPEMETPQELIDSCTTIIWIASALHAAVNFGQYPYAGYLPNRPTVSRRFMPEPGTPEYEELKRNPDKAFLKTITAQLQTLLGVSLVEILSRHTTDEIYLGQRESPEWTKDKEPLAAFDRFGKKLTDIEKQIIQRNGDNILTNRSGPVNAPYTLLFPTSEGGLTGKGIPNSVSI

CCCCCCCCCCCCCCCCCC(CCC(=O)O)(CCC(=O)O)[N+](=O)[O-] [Lx8, 3-Heptadecyl-3-nitropentane-1,5-dicarboxylic acid]
Effect on 15-LO catalysed oxidation of AA (15-LO [1]): Inhibitory | Effect on 15-LO catalysed oxidation of AA (15-LO [1]; listed as 3-heptadecyl-3-nitropentane-1,5-dicarboxylic acid): selective inhibitors | Effect on 15-LO catalysed oxidation of AA (15-LO [1]; listed as 8a): inhibitory effect | Inhibition pattern on 15-LO (1/v vs 1/[s]) (15-LO [2]): mixed inhibition pattern | melting point: 102 °C | Effect on 5-LO catalysed oxidation of AA (5-LO): Nil | Effect on 12-LO catalysed oxidation of AA (12-LO): Activatory
